Source: patent US7642283B2, “Mitochrondrial permeability transition pore affinity labels and modulators” (Hoffmann-La Roche Inc., priority 2003, dated 2010)
Read-outs that look alike come from different tables or passages of the source.

Legend:
[1] = biological target: T1, VDAC1 (Rattus norvegicus, UniProt Q9Z2L0); assay: Affinity labeling of rat mitochondria with the tritiated spiro compound, SDS-PAGE and fluorography; assay type: binding; conditions: rat brain mitochondria; 10 nM radiolabel
T1 construct: from tissue; host or cells: Percoll-purified rat brain and liver mitochondria
T1 sequence (Q9Z2L0 whole entry): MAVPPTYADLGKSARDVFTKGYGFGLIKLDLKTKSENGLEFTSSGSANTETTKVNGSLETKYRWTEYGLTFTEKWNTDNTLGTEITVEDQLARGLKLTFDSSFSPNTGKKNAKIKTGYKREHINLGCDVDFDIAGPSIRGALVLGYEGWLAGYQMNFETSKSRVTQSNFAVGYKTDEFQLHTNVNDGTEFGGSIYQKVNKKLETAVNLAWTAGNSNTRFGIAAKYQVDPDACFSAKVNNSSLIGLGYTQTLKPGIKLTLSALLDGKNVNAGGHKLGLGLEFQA
Experimental: FIG. 6: Affinity-labeling of isolated rat brain (A) and liver (B) mitochondria. Mitochondrial preparations were incubated in the presence of 10 nM Spiro[cyclopentane-1,5′-[5H]dibenzo[a,d]cyclohepten]-2-one,10′,11′-t2-10′,11′-dihydro-3-methylene- for 15 min at 25° C. in presence or absence of various concentrations of Spiro[cyclopentane-1,5′-[5H]dibenzo[a,d]cyclohepten]-2-one,10′,11′-dihydro-3-methylene-(unlabeled). Samples were submitted to SDS-PAGE (see Experimental Procedures section for details) and fluorography. The fluorograms of the gels are shown. The molecular mass scale (kDa) is shown in the ordinate.
(§1) FIG. 8: (A) Effect of monobromobimano (MBBM) and phenylarsino oxide (PhAO) on VDAC1 labeling by Spiro[cyclopentane-1,5′-[5H]dibenzo[a,d]cyclohepten]-2-one,10′,11′-t2-10′,11′-dihydro-3-methylene- in rat brain mitochondria. Experimental conditions were as in the legend to FIG. 5. (B) Effect of various MPTP inhibitors, atractyloside (ATR) and DIDS on VDAC1 labeling by Spiro[cyclopentane-1,5′-[5H]dibenzo[a,d]cyclohepten]-2-one,10′,11′-t2-10′,11′-dihydro-3-methylene- in rat brain mitochondria. Mitochondria were exposed to DIDS for 5 min before rinsing for removal of the free agent and labeling with Spiro[cyclopentane-1,5′-[5H]dibenzo[a,d]cyclohepten]-2-one,10′,11′-t2-10′,11′-dihydro-3-methylene.
Percoll purified mitochondria (˜30 μg protein per sample) were incubated in the presence of 10 nM Spiro[cyclopentane-1,5′-[5H]dibenzo[a,d]cyclohepten]-2-one,10′,11′-t2-10′,11′-dihydro-3-methylene- in a final volume of 200 μl. After incubation for 15 min at 25° C., samples were centrifuged at 25000×g and the mitochondrial pellet rinsed twice with buffer. Samples were then solubilized in sample buffer containing β-mercaptoethanol (1 h at 37° C.) and subjected to SDS-polyacrylamide gel-electrophoresis (SDS-PAGE) on Tris-glycine Novex pre-cast mini-gels (12% monomer concentration, Invitrogen BV, The Netherlands). After Coomassie Blue staining, gels were processed for fluorography by soaking in Amplify™ (Amersham Biosciences), drying and exposing to X-ray BioMax MS film with BioMax MS intensifying screen (Kodak) at −80° C. for the appropriate time.
as §1, with “Effect” for “FIG. 8: (A) Effect”, “monobromobimano” for “monobromobimano (MBBM)”, “oxide” for “oxide (PhAO)”, “Example 12 (FIG. 8A).” for “the legend to FIG. 5. (B)”, “Spiro[cyclopentane-1,5′-[5H]dibenzo[a,d]cyclohepten]-2-one,10′,11′-t2-10′,11′-dihydro-3-methylene (FIG. 8B).” for “Spiro[cyclopentane-1,5′-[5H]dibenzo[a,d]cyclohepten]-2-one,10′,11′-t2-10′,11′-dihydro-3-methylene.”

[2] = biological target: T2, MPTP (Rattus norvegicus, UniProt Q9Z2L0); assay: Ca2+-retention capacity of rat brain mitochondria (Calcium Green-5N); assay type: biochemical
T2 construct: other: n=2; glutamate/malate; other: glutamate/malate; 20 min; mean±SEM; unit not given; other: 300 nM; relieved by 50 μM Ub5
T2 sequence (Q9Z2L0 2-283): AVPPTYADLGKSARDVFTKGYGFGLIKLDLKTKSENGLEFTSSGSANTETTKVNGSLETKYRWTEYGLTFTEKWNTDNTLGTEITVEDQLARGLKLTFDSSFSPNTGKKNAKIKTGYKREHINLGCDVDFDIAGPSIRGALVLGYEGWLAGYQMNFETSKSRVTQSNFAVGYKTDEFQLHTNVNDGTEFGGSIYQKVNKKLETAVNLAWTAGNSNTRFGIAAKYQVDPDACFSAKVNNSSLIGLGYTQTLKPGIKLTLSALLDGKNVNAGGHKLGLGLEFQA
Experimental: FIG. 4: (A) Effect of Spiro[cyclopentane-1,5′-[5H]dibenzo[a,d]cyclohepten]-2-one,10′,11′-dihydro-3-methylene- and CsA on Ca^2+-retention capacity of rat brain mitochondria. The incubation medium contained 0.2 M sucrose, 10 mM Tris-Mops, pH 7.4, 1 mM Pi-Tris, 5 μM EGTA and 5 mM glutamate/2.5 mM malate, buffered to pH 7.4 with Tris, containing 0.01% (w/v) bovine serum albumin and 1 μM Calcium Green-5N. The final volume was 2.5 ml. Trace (a) control, (b) 1 μM CsA, (c) 1 μM Spiro[cyclopentane-1,5′-[5H]dibenzo[a,d]cyclohepten]-2-one,10′,11′-dihydro-3-methylene- and (d) 1 μM CsA plus 1 μM Spiro[cyclopentane-1,5′-[5H]dibenzo[a,d]cyclohepten]-2-one,10′,11′-dihydro-3-methylene-. Each fluorescence spike corresponds to addition of 5 μM Ca^2+. (B) Comparison of Ca^2+-retention capacity in liver (a) and brain mitochondria (b).
Effect of Spiro[cyclopentane-1,5′-[5H]dibenzo[a,d]cyclohepten]-2-one,10′,11′-dihydro-3-methylene- and CsA on Ca^2+-retention capacity of rat brain mitochondria (FIG. 4). Measurement of extramitochondrial Ca^2+ was determined using a Perkin-Elmer LS-50B fluorimeter controlled by the FL WinLab computer program. […] The final volume was 2.5 ml and the cuvette was thermostated at 25° C. Brain mitochondria were then subjected to a train of 5 μM Ca^2+ additions (˜150 nmol mg protein^−1). Extramitochondrial Ca^2+ was monitored at excitation/emission wavelengths of 505-535. […] The Ca^2+-retention capacity in liver (a) and brain mitochondria (b) were also compared (FIG. 4B).
The effect of Spiro[cyclopentane-1,5′-[5H]dibenzo[a,d]cyclohepten]-2-one,10′,11′-dihydro-3-methylene- at inhibiting MPTP was also investigated in mitochondria isolated from rat forebrain. […] Due to the difficulties mentioned above, the effect of Spiro[cyclopentane-1,5′-[5H]dibenzo[a,d]cyclohepten]-2-one,10′,11′-dihydro-3-methylene- on MPTP in brain mitochondria was more accurately investigated by subjecting mitochondria isolated from rat forebrain to a series of Ca^2+ pulses (5 μM, ˜150 nmol mg protein^−1) and by monitoring extramitochondrial Ca^2+ or using fluororescent probes.

[3] = biological target: Cyp-D (Homo sapiens, UniProt P30405); assay: Cyp-D peptidyl prolyl cis-trans isomerase enzymatic activity; assay type: biochemical; conditions: at concentrations completely blocking MPTP
Cyp-D, sequence (P30405 30-207): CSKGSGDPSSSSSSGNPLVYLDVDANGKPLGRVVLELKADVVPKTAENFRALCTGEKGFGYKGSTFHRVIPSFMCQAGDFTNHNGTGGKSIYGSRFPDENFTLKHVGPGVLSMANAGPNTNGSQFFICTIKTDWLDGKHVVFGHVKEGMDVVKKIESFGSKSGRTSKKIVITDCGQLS

[4] = tested on: T3, MPTP; assay: Ca2+-induced swelling in deenergized liver mitochondria; assay type: biochemical; conditions: n=2; 30 min after addition of 200 μM Ca2+; read-out: EC50 of MPTP inhibition in deenergized mitochondria
T3 construct: other: n=2; 30 min after addition of 200 μM Ca2+

[5] = tested on: mitochondrial respiration; assay: Mitochondrial respiration (oxygen consumption); assay type: biochemical; conditions: at concentrations completely blocking MPTP
Experimental: Isolated liver mitochondria (˜0.5 mg protein ml^−1) were incubated in a batch mode in the presence of 20 nM [^3H]TPP ([^3H]Tetraphenylphosphonium ([^3H]TPP, 24-29 Ci/mmol) from Amersham Biosciences, Switzerland) for 15 min at 25° C. Aliquots (100 μl) of the mixture were then distributed into 96-well plates containing 100 μl of the test compound and the incubation prolonged for 15 min at 25° C. Samples were then filtered through 0.3% (v/v) polyethyleneimmine-treated GF/B glass fiber filters using a 96-channel cell harvester and the filters washed twice with 1 ml of buffer. Fifty μl of MICROSCINT 40 (Packard) were then added to each well, before counting for radioactivity in a TopCount scintillation counter (Packard). Non-specific uptake was determined in the presence of 1 mM unlabeled TPP or 1 μM carbonylcianide-p-trifluoromethoxyphenyl hydrazone (FCCP). Mitochondrial oxygen consumption was measured polarographically at 25° C. using a Clark-type electrode.
Compounds found to inhibit MPTP where then counter-screened using uptake of the potentiometric probe [^3H]-TPP (Hoek, J. B., Nicholls, D. G. & Williamson, J. R. (1980) J. Biol. Chem. 255, 1458-1564) for determining in a semi-quantitative, but rapid way whether they interfered with mitochondrial respiration (e.g. protonophores). […]

[6] = biological target: T4, MPTP (Rattus norvegicus); assay: Ca2+-induced swelling (MPTP) in rat liver mitochondria energised with succinate; assay type: biochemical; conditions: succinate 5 mM + 2 μM rotenone; 80 μM Ca2+; ΔA540 20 min after CaCl2
T4 construct: other: n=2; glutamate/malate; other: glutamate/malate; 20 min; mean±SEM; unit not given; other: 300 nM; relieved by 50 μM Ub5
T4 sequence (Q9Z2L0 2-283): as the sequence (Q9Z2L0 2-283) above
Experimental: Ca^2+-induced swelling (sucrose permeability) in energized mitochondria was assayed at 25° C. in 96 well-plates by measuring changes in absorbance at 540 nm by means of a […]ax 250 spectrophometer controlled by the SOFTmax PRO™ software (Molecular Devices, Switzerland). The incubation medium contained 0.2 M sucrose, 10 mM Tris-Mops, pH 7.4, 1 mM Pi-Tris, 5 μM EGTA. Succinate (5 mM, in the presence of 2 μM rotenone) or 5 mM glutamate/2.5 mM malate, buffered to pH 7.4 with Tris, were used as respiratory substrates. After a short (˜5 min) preincubation in presence or absence of test compounds, mitochondrial swelling was induced by the addition of 20 μl CaCl2 at final concentrations ranging from 40 to 80 μM, depending on respiratory substrates and Ca^2+ sensitivity of the mitochondrial preparation. The final incubation volume was 0.2 ml and the concentration of mitochondria was ˜0.5 mg mitochondrial protein ml^−1. Swelling kinetics was followed for up to 30 min at 25° C. Absorbance readings were taken every 12 sec and the plate was shaken for 3 s between readings to ensure oxygen diffusion during the experiment and to avoid sedimentation of the mitochondria.
The incubation medium contained 0.2 M sucrose, 10 mM Tris-Mops, pH 7.4, 1 mM Pi-Tris, 5 μM EGTA.

[7] = tested on: MPTP; assay: Ca2+-induced depolarisation (membrane potential, Rhodamine-123) of rat brain mitochondria; assay type: biochemical; conditions: 50 μM Ub5 alone
Experimental: (B) Ca^2+-induced depolarisation of rat brain mitochondria. The medium used was as in the legend to FIG. 4, except that 0.5 μM Rhodamine-123 was added instead of Calcium Green-5N, and MPTP was induced by addition of 20 μM Ca^2+. Trace a, control (Ca^2+ alone), b, 300 nM Spiro[cyclopentane-1,5′-[5H]dibenzo[a,d]cyclohepten]-2-one,10′,11′-dihydro-3-methylene-, c, 300 nM Spiro[cyclopentane-1,5′-[5H]dibenzo[a,d]cyclohepten]-2-one,10′,11′-dihydro-3-methylene- and 50 μM Ub5.
The effect of Spiro[cyclopentane-1,5′-[5H]dibenzo[a,d]cyclohepten]-2-one,10′,11′-dihydro-3-methylene- at inhibiting MPTP was also investigated in mitochondria isolated from rat forebrain. […] Due to the difficulties mentioned above, the effect of Spiro[cyclopentane-1,5′-[5H]dibenzo[a,d]cyclohepten]-2-one,10′,11′-dihydro-3-methylene- on MPTP in brain mitochondria was more accurately investigated by subjecting mitochondria isolated from rat forebrain to a series of Ca^2+ pulses (5 μM, ˜150 nmol mg protein^−1) and by monitoring extramitochondrial Ca^2+ or using fluororescent probes. […] Virtually identical results were obtained from experiments where Δψm was monitored after a series of Ca^2+ additions (5 μM each). Each Ca^2+ additions caused a reversible decreases in Δψm, until MPTP opening completely collapsed Δψm and no further fluorescence increase could observed after addition of the protonophore FCCP.

[8] = Ca2+ pulses, rat brain mitochondria

Row | Compound | Effect on VDAC1 labeling (incorporation of radioactivity) by the tritiated spiro compound [1] | Additive effect when combined with the spiro compound (Example 2) [2, 8] | EC50 [6] | other results
1 | CCN(CC)CC1COc2ccc(Br)cc2C1=O (stereo not shown) [6-bromo-3-diethylaminomethyl-chroman-4-one] | inhibited | – | – | –
2 | C=C1COc2ccc(Br)cc2C1=O [6-bromo-3-methylene-chroman-4-one] | inhibited | no additive effect | – | Inhibition of Cyp-D peptidyl prolyl cis-trans isomerase activity [3]: did not inhibit; EC50 [4]: 2.8 µM; Inhibition of mitochondrial respiration (basal, ADP-induced and uncoupled) [5]: did not inhibit
3 | C=C1[C@@H]2CC[C@H]3[C@]4(C)C[C@H](O[C@@H]5O[C@H](CO)[C@@H](OS(=O)(=O)O)[C@H](OS(=O)(=O)O)[C@H]5OC(=O)CC(C)C)C[C@@H](C(=O)O)[C@H]4CC[C@]3(C2)[C@H]1O [ATR, atractyloside] | did not affect | – | – | –
4 | CO[C@H](C/C=C\C=C\CC/C=C/C[C@H](C)/C=C/C(=C\C(=O)O)CC(=O)O)/C(C)=C\C=C(/C)C(=O)O [Bongkrekic acid] | did not affect | additive | 11.5 µM | –
5 | O=S(=O)(O)c1cc(N=C=S)ccc1C=Cc1ccc(N=C=S)cc1S(=O)(=O)O [DIDS, 4,4′-diisothiocyanatostilbene-2,2′-disulfonic acid] | appeared to inhibit | – | – | –
6 | CN1CCN(CCCN2c3ccccc3Sc3ccc(C(F)(F)F)cc32)CC1 [Trifluoroperazine] | did not affect | – | 9.4 µM | Additive effect when combined with the spiro compound (Example 2) [2]: additive
7 | COC1=C(OC)C(=O)C(C/C=C(\C)CC/C=C(\C)CC/C=C(\C)CC/C=C(\C)CCC=C(C)C)=C(C)C1=O [Ub5, ubiquinone5, reference compound] | – | – | – | Effect of Ub5 alone [7]: no effect
8 | COC1=C(OC)C(=O)C(C)=CC1=O [Ubiquinone0] | Inhibition | no such additive effect | 23.2 µM | EC50 [4]: 4.9 µM
